Entries after “also recorded” stand apart in the source; their conditions may differ. No end group written: not given here.
Columns and labels:
mice = details: intraperitoneal administration to mice; cited from earlier work
Sprague Dawley rats = format: in vivo, rat; parameters: number of platelets / increase of platelet count from control: unit not given here
Protocol: A repeated dose 14-day intramuscular toxicity study was conducted on 36 SD male and 36 SD female adult rats. They were divided into 3 groups. The first control group was given normal saline, the second and the third experimental groups received Az at doses of 0.1 mg/kg and 0.5 mg/kg, respectively, daily for 14 days. The substances were injected into the quadriceps muscle of the thigh. Every day the animals were examined and any clinical signs of intoxication, body weight and food intake were recorded. The one half of the animals were euthanized on the 15th day of the study, the second half—after a 2-week cancellation period on the 29th day of the study. All animals were autopsied and their organs were inspected for any pathological signs, weighed and histologically examined. The ratio of organ-to-body weight was calculated for several organs: brain, heart, liver, spleen, thymus, kidneys, lungs, testicles and ovaries. The histological analysis was carried out for a number of organs: kidney, adrenal glands, testis, ovary, spleen, thymus, brain, heart, lung, liver, lymph node (mesenteric and mandibular), stomach, skin and muscle from the site of the administration.
A biochemical analysis of blood serum parameters was performed. A level of aspartate aminotransferase, alanine aminotransferase, glutamate dehydrogenase, alkaline phosphatase, gamma-glutamyl transferase, urea nitrogen, creatinine, total bilirubin, total protein, albumin, globulin, phosphorus, calcium, total cholesterol, triglycerides, albumin/globulin ratio was estimated. The analysis was performed using Randox GB reagent kits for each tested parameter and the automatic biochemical analyzer Sapphire-400 (Tokyo Boeki Ltd., Toyko, Japan).
A hematological analysis of animal blood included the evaluation of red and white blood cell number, a hemoglobin level, hematocrit, red cell distribution width, mean corpuscular volume (MCV), mean corpuscular hemoglobin (MCH), mean corpuscular hemoglobin concentration (MCHC), platelets number, a mean platelet volume, a mean platelet component and a cell number of neutrophils, eosinophils, basophils, lymphocytes, monocytes, large unstained cells, reticulocytes. The analysis was performed using a hematological analyzer Mythic 18 Vet (C2 D[…].A., Montpellier, France).

[1] = target: T1, rat neuronal heteromeric α4β2 nAChR (Rattus norvegicus, UniProt P09483+P12390); format: cell-based
T1 construct: expressed in transfected cells; host or cells: Xenopus laevis oocytes injected with pcDNA3.1 plasmids, α4:β2 1:1
T1 sequence (P09483 31-630): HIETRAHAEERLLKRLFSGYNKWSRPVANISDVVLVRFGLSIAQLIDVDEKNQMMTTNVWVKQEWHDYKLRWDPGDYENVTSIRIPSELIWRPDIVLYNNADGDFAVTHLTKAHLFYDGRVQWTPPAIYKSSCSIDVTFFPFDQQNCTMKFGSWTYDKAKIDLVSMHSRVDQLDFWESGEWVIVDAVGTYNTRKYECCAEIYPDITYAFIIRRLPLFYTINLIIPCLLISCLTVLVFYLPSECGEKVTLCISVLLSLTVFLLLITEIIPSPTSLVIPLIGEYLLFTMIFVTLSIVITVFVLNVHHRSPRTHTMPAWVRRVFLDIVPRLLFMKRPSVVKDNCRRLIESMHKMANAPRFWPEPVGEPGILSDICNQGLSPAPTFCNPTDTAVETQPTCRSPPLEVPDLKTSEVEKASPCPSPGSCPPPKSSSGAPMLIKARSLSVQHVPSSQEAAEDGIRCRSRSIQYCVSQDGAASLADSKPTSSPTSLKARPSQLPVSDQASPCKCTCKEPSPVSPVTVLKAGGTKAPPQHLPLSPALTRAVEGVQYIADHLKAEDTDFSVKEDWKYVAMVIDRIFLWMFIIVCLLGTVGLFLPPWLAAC
T1 sequence (P12390 25-500): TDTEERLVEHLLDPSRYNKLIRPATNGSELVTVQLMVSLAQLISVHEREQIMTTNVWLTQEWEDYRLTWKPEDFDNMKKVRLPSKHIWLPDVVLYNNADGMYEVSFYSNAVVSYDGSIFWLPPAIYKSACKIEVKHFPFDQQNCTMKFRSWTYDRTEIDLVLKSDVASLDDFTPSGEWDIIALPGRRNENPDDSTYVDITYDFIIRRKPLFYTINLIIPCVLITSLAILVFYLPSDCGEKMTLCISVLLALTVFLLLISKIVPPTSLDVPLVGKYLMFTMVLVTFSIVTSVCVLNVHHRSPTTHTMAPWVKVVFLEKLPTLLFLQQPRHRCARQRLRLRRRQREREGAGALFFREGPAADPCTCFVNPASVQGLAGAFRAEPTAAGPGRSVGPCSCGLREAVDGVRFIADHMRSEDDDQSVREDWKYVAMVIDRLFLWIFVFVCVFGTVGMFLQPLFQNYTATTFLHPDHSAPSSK
Protocol: Ovary tissue from adult female Xenopus laevis was cut into small pieces and these pieces were digested with collagenase A (4 mg mL^−1, Worthington Biochemical Corp., Lakewood, NJ, USA) in Barth’s solution without calcium (88.0 mM NaCl, 1.1 mM KCl, 2.4 mM NaHCO3, 0.8 mM MgSO4, 15.0 mM HEPES/NaOH, pH 7.6) for 1.5 ± 2 h at 20 °C. The oocytes were stored in Barth’s solution with calcium (88.0 mM NaCl, 1.1 mM KCl, 2.4 mM NaHCO3, 0.3 mM Ca (NO3)2, 0.4 mM CaCl2, 0.8 mM MgSO4, 15.0 mM HEPES/NaOH, pH 7.6) supplemented with 63.0 μg/mL penicillin-G sodium salt, 40.0 μg/mL streptomycin sulfate and 40.0 μg/mL gentamicin. Stage V ± VI oocytes were selected and injected with 3 ng plasmids coding the rat α4 and β2 nAChR subunits (pcDNA3.1 vector) in a molar ratio of 1:1 using an Auto-Nanoliter Injector NanoJect-2 (Drummond Scientific Company, Broomall, PA, USA) in a total injection volume of 23 nL. After injection, oocytes were incubated at 18 °C in Barth’s solution with calcium for 48–120 h. Electrophysiological recordings were made using a Turbo TEC-03X amplifier (npi electronic GmbH, Tamm, Germany) and WinWCP recording software (University of Strathclyde, Glasgow, UK). […] To allow receptor recovery from desensitization, the oocytes were superfused for 5–10 min with buffer (1 mL/min) between ligand applications. Electrophysiological recordings were performed at a holding potential of −60 mV.

human α7 nAChR = details: cited from earlier work
male ICR mice [2] = assay: Forelimb grip strength test (muscle relaxant effect) after intramuscular administration; format: in vivo, mouse; details: for effect on forelimb muscular strength: vs saline control
Protocol: 40 male ICR mice were divided equally into four groups: one control and three experimental groups. Animals of the control and experimental groups were treated with normal saline and with Az at doses of 0.03, 0.1 and 0.3 mg/kg, respectively. In addition 6 mice were treated with Az at dose of 0.01 mg/kg. The corresponding solutions were injected into the triceps muscles of the mouse forelimbs at a volume of 0.5 mL/kg per each limb. For all animals their basic forelimb grip strength was recorded before the substance administration with a 1027 grip strength meter (Columbus Instruments, Columbus, OH, USA). Further, their grip strength was measured 5, 10, 15, 20, 30, 60, 90 min after the Az (or normal saline) im administration.
Rocuronium was administered intramuscularly as described for the measurement of acute toxicity (Section 5.4.1). Muscle strength was assessed prior to administration of the substance and then 1, 2, 3, 4, 5 min after administration.

male ICR mice [3] = format: in vivo, mouse; details: 7-day im 0.15 and 0.5 mg/kg
Protocol: For carrying out these experiments 90 male ICR mice were used, they were divided equally into three groups (30 animals per group) for each study and in these groups they were subdivided into subgroups of 10 mice each and treated as follows: mice of the first subgroup were injected with normal saline im, the second subgroup animals were treated with Az (0.15 mg/kg im) and the animals of the third subgroup were treated with Az (0.50 mg/kg im). The drugs were injected into the quadriceps muscle of the thigh (musculus quadriceps femoris) daily for seven days (1 mL/kg).
On the last 7th day of the Az administration, the mice of the first group (30 animals) were immunized with a solution of trinitrobenzenesulfonic acid (TNBS) (200 μL, 10 mM) subcutaneously at the base of a tail. After 6 days the animals were secondarily immunized with TNBS (50 μL, 10 mM) injected in the pad of the left hind paw, the same volume of normal saline was injected into the right hind paw. 24 h after the second immunization, the animals were euthanized (CO2 inhalation) and the weights of their experimental and control paws were determined. The reaction index was calculated using the indicated formula: Ri=Wexp−Wcont/Wexp×100% Ri—reaction index, Wexp—weight of the experimental paw, Wcont—weight of the control paw.

[4] = target: muscle-type Torpedo nicotinic acetylcholine receptor (nAChR); details: cited from earlier work
[5] = tested on: GABAA (α1β3γ2 or α2β3γ2) receptors; details: concentration up to 100 μM; cited from earlier work
[6] = intramuscular injection to mice (abstract)

Substance: DNWWPKPPHQGPRPPRPRPKP-NH2 [Az, azemiopsin]
- LD50 (mice): 2.57 ± 0.27 mg/kg
- changes in the hemogram relative to control (Sprague Dawley rats; 0.1 mg/kg im 14 days): did not lead to any changes
- increase in mean body weight and food intake vs control (Sprague Dawley rats; 0.1 and 0.5 mg/kg im 14 days): did not differ significantly
- histological analysis of organs and tissues (Sprague Dawley rats; 0.1 and 0.5 mg/kg im 14 days, rats): No pathological changes
- lowering of cholesterol level from control (Sprague Dawley rats; female rats, 0.1 mg/kg): 0.73 mmol/L
- level of calcium in blood serum (Sprague Dawley rats; female rats, 0.1 mg/kg, end of 28-day experiment, n = 6, control 3.25 ± 0.09): 3090 ± 60 µM
- level of cholesterol in blood serum (Sprague Dawley rats; female rats, 0.1 mg/kg, end of 28-day experiment, n = 6, control 3.55 ± 0.39): 2820 ± 360 µM
- decrease of triglyceride level from control (Sprague Dawley rats; male rats receiving Az): 0.28 mmol/L
- difference of relative heart mass from control (Sprague Dawley rats; male rats receiving Az): 0.076%
- increase of platelet count from control (Sprague Dawley rats; male rats receiving Az): 81
- number of platelets (Sprague Dawley rats; male rats, 0.5 mg/kg im 14 days, n = 6, control 729 ± 22): 810 ± 39
- mean level of triglycerides in blood serum (Sprague Dawley rats; male rats, 0.5 mg/kg, end of 28-day experiment, n = 6, control 1.25): 970 µM
- mean relative heart weight (Sprague Dawley rats; male rats, 0.5 mg/kg, two weeks after administration, n = 6, control 0.428 ± 0.086): 0.352 ± 0.033%
- influence on ion currents induced by 20 μM nicotine in α4β2 nAChR [1]: no influence
- effect on heteromeric rat α4β2 nAChR ([1]; concentrations up to 100 μM): no effect
- IC50 (human α7 nAChR): 22 ± 2 µM
- decrease of grip strength (male ICR mice [2]; 0.1 mg/kg im): 37%
- average effective dose at the maximum response point (male ICR mice [2]; 10 min after im injection, male ICR mice): 0.09 mg/kg
- effect on forelimb muscular strength (male ICR mice [2]; Az 0.01 mg/kg im, n = 6): No significant differences; also recorded: not effective
- effect on forelimb muscular strength (male ICR mice [2]; Az 0.03, 0.1 and 0.3 mg/kg im, n = 10): significant decrease
- time of maximal muscle relaxant effect after administration (male ICR mice [2]; all doses studied, im, preserved until the 30th minute): 10 min
- duration of muscle relaxant effect (male ICR mice [2]; depending on the dose, im): 25 to 55 min
- longest period of action (male ICR mice [2]; dose 0.3 mg/kg im, from the 5th to the 60th minute): 55 min
- average effective dose (muscle relaxant effect) (male ICR mice [2]; [6]): 0.09 mg/kg
- initial effective dose (muscle relaxant effect) (male ICR mice [2]; [6]): 0.03 mg/kg
- initial effective dose (muscle relaxant effect) (male ICR mice [2]; single im injection in forelimb muscles, male ICR mice): 0.03 mg/kg
- degree of paw edema in delayed-type hypersensitivity to TNBS (cellular immunity) (male ICR mice [3]): did not cause any significant changes
- IC50 [4]: 0.18 ± 0.03 µM
- activity against GABAA receptors [5]: no activity
